Legend:
[1] = target: T1, Neuropeptide Y receptor type 5 (Homo sapiens, UniProt Q15761); experiment: Antagonist activity at human NPY Y5 receptor; assay type: functional
T1 sequence (Q15761 whole entry): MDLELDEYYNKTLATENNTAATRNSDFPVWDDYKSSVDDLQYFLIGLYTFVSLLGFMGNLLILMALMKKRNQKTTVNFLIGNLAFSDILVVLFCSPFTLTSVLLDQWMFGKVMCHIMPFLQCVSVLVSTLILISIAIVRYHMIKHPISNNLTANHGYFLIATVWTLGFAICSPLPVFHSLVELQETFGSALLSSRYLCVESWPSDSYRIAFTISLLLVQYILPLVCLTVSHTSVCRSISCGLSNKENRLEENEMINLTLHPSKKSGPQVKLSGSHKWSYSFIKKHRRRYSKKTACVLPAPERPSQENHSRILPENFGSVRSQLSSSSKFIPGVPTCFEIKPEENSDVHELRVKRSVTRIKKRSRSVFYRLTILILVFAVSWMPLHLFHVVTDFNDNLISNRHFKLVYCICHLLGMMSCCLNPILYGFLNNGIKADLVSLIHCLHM

Cytochrome P450 1A2 = target: T2, Cytochrome P450 1A2 (Homo sapiens, UniProt P05177); experiment: Inhibition of CYP1A2; assay type: ADME
T2 sequence (P05177 whole entry): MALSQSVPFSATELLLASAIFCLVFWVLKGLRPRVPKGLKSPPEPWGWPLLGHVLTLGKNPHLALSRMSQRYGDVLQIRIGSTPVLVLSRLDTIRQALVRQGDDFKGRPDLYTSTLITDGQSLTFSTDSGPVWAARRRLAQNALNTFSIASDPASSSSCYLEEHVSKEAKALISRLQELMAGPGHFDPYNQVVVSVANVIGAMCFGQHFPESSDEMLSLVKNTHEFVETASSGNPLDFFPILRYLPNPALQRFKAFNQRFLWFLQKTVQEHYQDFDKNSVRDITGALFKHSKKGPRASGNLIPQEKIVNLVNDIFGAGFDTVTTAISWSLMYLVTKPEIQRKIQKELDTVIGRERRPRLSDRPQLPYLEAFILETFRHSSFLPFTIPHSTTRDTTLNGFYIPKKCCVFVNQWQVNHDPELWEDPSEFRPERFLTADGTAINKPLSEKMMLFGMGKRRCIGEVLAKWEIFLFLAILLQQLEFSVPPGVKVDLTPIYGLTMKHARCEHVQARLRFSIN

Cytochrome P450 2C9 = Cytochrome P450 2C9 (Homo sapiens, UniProt P11712); experiment: Inhibition of CYP2C9; assay type: ADME
Cytochrome P450 2D6 = Cytochrome P450 2D6 (Homo sapiens, UniProt P10635); experiment: Inhibition of CYP2D6; assay type: ADME
Cytochrome P450 3A4 = Cytochrome P450 3A4 (Homo sapiens, UniProt P08684); experiment: Inhibition of CYP3A4; assay type: ADME
[2] = Protein binding in rat brain assessed as unbound fraction; assay type: ADME, tissue-based; conditions: brain tissue
[3] = Clearance in rat blood at 0.5 mg/kg, iv and 1 mg/kg, po; assay type: ADME, organism-based; conditions: whole blood
[4] = Oral bioavailability in rat at 1 mg/kg; assay type: ADME, organism-based; conditions: in vivo
[5] = Ratio of drug uptake from blood to brain in rat; assay type: ADME, tissue-based; conditions: brain and blood
Liver microsomes [6] = experiment: Intrinsic clearance in rat liver microsome; assay type: ADME
Liver microsomes [7] = experiment: Intrinsic clearance in human liver microsome; assay type: ADME
Cytochrome P450 2C19 = Cytochrome P450 2C19 (Homo sapiens, UniProt P33261); experiment: Inhibition of CYP2C19; assay type: ADME
Rattus norvegicus = experiment: In vivo antagonist activity at NPY Y5 receptor in orally dosed rat assessed as reduction in food intake; conditions: oral, read-out: MED

Sequence of Cytochrome P450 2D6 (P10635 whole entry): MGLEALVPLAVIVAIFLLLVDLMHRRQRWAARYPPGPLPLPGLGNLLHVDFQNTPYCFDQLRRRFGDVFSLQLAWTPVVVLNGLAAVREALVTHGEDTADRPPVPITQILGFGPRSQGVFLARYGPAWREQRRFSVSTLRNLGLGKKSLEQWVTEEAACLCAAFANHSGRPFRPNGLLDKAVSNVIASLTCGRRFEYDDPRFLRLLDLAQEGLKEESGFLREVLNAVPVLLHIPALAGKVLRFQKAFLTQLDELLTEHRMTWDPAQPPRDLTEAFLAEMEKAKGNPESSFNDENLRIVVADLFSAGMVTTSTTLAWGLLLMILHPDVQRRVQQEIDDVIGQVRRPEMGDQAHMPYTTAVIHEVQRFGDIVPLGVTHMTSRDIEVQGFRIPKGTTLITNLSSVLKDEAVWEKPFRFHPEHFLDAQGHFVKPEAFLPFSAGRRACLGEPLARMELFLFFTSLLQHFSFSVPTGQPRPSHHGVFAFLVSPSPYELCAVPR
Sequence of Cytochrome P450 2C19 (P33261 whole entry): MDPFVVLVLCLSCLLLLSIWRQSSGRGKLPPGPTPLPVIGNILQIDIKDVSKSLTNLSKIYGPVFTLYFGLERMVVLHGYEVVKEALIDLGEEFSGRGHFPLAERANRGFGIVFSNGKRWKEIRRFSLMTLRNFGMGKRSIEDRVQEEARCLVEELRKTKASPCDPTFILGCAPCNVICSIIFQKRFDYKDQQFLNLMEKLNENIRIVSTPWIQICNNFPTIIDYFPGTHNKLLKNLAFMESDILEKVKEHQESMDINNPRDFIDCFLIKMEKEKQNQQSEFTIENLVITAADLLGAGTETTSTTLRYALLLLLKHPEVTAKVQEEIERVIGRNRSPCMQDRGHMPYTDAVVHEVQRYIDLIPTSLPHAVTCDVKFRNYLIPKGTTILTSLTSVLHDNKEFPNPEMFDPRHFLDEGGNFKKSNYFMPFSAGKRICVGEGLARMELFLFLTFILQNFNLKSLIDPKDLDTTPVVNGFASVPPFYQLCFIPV
Sequence of Cytochrome P450 2C9 (P11712 whole entry): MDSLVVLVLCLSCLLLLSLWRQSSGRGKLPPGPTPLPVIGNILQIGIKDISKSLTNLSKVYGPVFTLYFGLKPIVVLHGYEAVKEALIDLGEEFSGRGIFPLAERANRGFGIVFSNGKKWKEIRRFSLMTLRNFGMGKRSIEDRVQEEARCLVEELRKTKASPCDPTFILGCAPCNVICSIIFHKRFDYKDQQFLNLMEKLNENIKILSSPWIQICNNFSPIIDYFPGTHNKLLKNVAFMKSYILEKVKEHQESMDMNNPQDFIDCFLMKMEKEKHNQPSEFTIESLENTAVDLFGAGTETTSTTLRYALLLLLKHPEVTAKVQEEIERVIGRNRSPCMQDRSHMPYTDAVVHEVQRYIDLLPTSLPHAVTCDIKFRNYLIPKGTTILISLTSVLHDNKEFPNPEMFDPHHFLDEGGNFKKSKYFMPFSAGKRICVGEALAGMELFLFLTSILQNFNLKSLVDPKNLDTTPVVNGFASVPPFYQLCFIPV
Sequence of Cytochrome P450 3A4 (P08684 whole entry): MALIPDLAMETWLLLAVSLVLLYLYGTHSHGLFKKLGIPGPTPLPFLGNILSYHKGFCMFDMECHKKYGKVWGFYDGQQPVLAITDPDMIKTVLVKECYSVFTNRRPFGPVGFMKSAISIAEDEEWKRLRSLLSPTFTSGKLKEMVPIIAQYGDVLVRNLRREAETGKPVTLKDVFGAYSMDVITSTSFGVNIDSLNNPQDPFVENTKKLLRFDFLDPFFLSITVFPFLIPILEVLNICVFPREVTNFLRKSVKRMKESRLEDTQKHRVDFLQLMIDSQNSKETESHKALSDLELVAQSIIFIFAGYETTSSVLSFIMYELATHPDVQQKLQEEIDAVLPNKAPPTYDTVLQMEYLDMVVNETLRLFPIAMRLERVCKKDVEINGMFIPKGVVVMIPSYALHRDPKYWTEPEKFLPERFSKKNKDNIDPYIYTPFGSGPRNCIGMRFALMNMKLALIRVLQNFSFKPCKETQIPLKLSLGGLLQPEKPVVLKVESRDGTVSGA

| SMILES | Ki [1] | INH (Cytochrome P450 1A2) | INH (Cytochrome P450 2C9) | INH (Cytochrome P450 2D6) | INH (Cytochrome P450 3A4) | fraction unbound [2] | clearance [3] | bioavailability [4] | Kp [5] | CL (Liver microsomes [6]) | CL (Liver microsomes [7]) | INH (Cytochrome P450 2C19) | minimal effective dose (Rattus norvegicus) | clearance (Liver microsomes [6]) | clearance (Liver microsomes [7]) |
| --- | --- | --- | --- | --- | --- | --- | --- | --- | --- | --- | --- | --- | --- | --- | --- |
| O=C1O[C@]2(CC[C@H](CNc3ccc(-c4ccccc4F)nn3)CC2)CN1c1cccnn1 | 0.158 nM | > 10 µM | > 10 µM | > 10 µM | > 10 µM | 0.046 | 18 mL/min/kg | 90% | 0.25 | < 0.5 mL/min/g | < 0.5 mL/min/g | > 10 µM |  |  |  |
| O=C1O[C@]2(CC[C@H](CNc3ccc(-c4cc(F)cc(F)c4)nn3)CC2)CN1c1cccnn1 | 0.1 nM | > 10 µM | 8 µM | > 10 µM | > 10 µM | 0.016 | 41 mL/min/kg | 75% | 1.6 | < 0.5 mL/min/g | < 0.5 mL/min/g |  | 3 mg/kg |  |  |
| O=C1O[C@]2(CC[C@H](CNc3cnn(-c4ccccc4F)c3)CC2)CN1c1cccnc1F | 0.1 nM | > 10 µM | 6 µM | > 10 µM | 5 µM | 0.019 |  |  |  |  |  | 8 µM |  |  |  |
| FC(F)(F)c1ccc(Nc2nc(-c3ccccn3)cs2)cc1 |  | < 0.1 µM | < 0.1 µM | < 0.1 µM | < 0.1 µM |  | 27 mL/min/kg |  |  |  |  | < 0.1 µM |  |  |  |
| O=C1O[C@]2(CC[C@H](CNc3ccc(OC4CCC4)cn3)CC2)CN1c1ccccn1 | 0.158 nM | > 10 µM | 2 µM | 2 µM | 3 µM |  |  |  |  |  |  | 7 µM |  |  |  |
| O=C1O[C@]2(CC[C@H](CNc3cnc(-c4ccccc4F)cn3)CC2)CN1c1ccccn1 | 0.0251 nM | > 10 µM | 0.3 µM | > 10 µM | > 10 µM | 0.002 |  |  |  |  |  | 2 µM |  |  |  |
| O=C(Nc1nc(-c2ccccn2)cs1)N1CCC2(CC1)CN(c1ccccc1)C(=O)O2 |  | > 10 µM | > 10 µM | > 10 µM | > 10 µM |  |  |  |  |  |  | > 10 µM |  | 0.5 mL/min/g | 0.6 mL/min/g |
| O=C1O[C@]2(CC[C@H](CNc3ccn(-c4ccccc4F)n3)CC2)CN1c1ccccn1 | 0.0316 nM | > 10 µM | 2 µM | > 10 µM | > 10 µM |  |  |  |  |  |  | 4 µM |  |  |  |
| O=C1O[C@]2(CC[C@H](CNc3nc(-c4ccccn4)cs3)CC2)CN1c1ccccn1 | 0.0794 nM | > 10 µM | 6 µM | > 10 µM | 3 µM | 0.01 | 30 mL/min/kg | 35% | 0.7 | 3.1 mL/min/g | 4 mL/min/g | 3 µM | 10 mg/kg |  |  |
| O=C1O[C@]2(CC[C@H](CNc3ccc(-c4ncccn4)cn3)CC2)CN1c1cccnn1 | 1.58 nM | > 10 µM | > 10 µM | > 10 µM |  |  |  |  |  |  |  | > 10 µM |  |  |  |
| Cc1ccccc1-c1ccc(NC[C@H]2CC[C@]3(CC2)CN(c2cccnn2)C(=O)O3)nn1 | 0.0631 nM | > 10 µM | > 10 µM | > 10 µM | > 10 µM | 0.051 |  |  |  |  |  | > 10 µM |  |  |  |
| O=C1O[C@]2(CC[C@H](CNc3ccc(-c4ncccc4F)cn3)CC2)CN1c1cccnn1 | 0.316 nM | > 10 µM | > 10 µM | > 10 µM | > 10 µM | 0.052 | 70 mL/min/kg | 50% | 0.4 |  |  | > 10 µM |  |  |  |
| Cc1nnc(N2C[C@]3(CC[C@@H](CNc4cnn(-c5ccccc5F)c4)CC3)OC2=O)s1 | 0.2 nM | > 10 µM | > 10 µM | > 10 µM | 6 µM | 0.026 |  |  |  |  |  | > 10 µM |  |  |  |
| O=C1O[C@]2(CC[C@H](CNc3cnn(-c4ccccc4F)c3)CC2)CN1c1cccnn1 | 0.1 nM | > 10 µM | > 10 µM | > 10 µM | > 10 µM | 0.031 | 13 mL/min/kg | 52% | 0.9 | < 0.5 mL/min/g | < 0.5 mL/min/g |  | 3 mg/kg |  |  |
| O=C1O[C@]2(CC[C@H](CNc3ncc(-c4ccccc4F)cn3)CC2)CN1c1ccccn1 | 0.316 nM | 6 µM | 1 µM | > 10 µM | 5 µM | < 0.01 |  |  |  |  |  | 4 µM |  |  |  |
| O=C1O[C@]2(CC[C@H](CNc3cnn(-c4ccccc4F)c3)CC2)CN1c1cnccn1 | 0.0631 nM | > 10 µM | 3 µM | 2 µM | 0.6 µM | 0.017 |  |  |  |  |  | 2 µM |  |  |  |
| O=C1O[C@]2(CC[C@H](CNc3ccc(-c4ccccc4F)nn3)CC2)CN1c1ccccn1 | 0.0631 nM | 5 µM | 1 µM | 2 µM | > 10 µM | 0.016 |  |  |  |  |  | 2 µM |  |  |  |
| O=C1O[C@]2(CC[C@H](CNc3ccc(-c4ccccc4F)nc3)CC2)CN1c1ccccn1 | 5.01 nM |  | 1 µM | 2 µM | 9 µM |  |  |  |  |  |  | 9 µM |  |  |  |
| Cc1ncccc1N1C[C@]2(CC[C@@H](CNc3cnn(-c4ccccc4F)c3)CC2)OC1=O | 0.631 nM | > 10 µM | > 10 µM | > 10 µM | > 10 µM |  |  |  |  |  |  |  |  |  |  |
| O=C1O[C@]2(CC[C@H](CNc3cnn(-c4ccccc4F)c3)CC2)CN1c1cccnc1 | 0.1 nM | > 10 µM | 7 µM | > 10 µM | 1 µM | 0.025 |  |  |  |  |  | 8 µM |  |  |  |
| Cc1cccc(-c2ccc(NC[C@H]3CC[C@]4(CC3)CN(c3cccnn3)C(=O)O4)nc2)n1 | 0.251 nM | > 10 µM | > 10 µM | > 10 µM | > 10 µM | 0.056 |  |  |  |  |  | > 10 µM |  |  |  |
| O=C1O[C@]2(CC[C@H](CNc3cnn(-c4ccccc4F)c3)CC2)CN1c1ccnnc1 | 0.2 nM | > 10 µM | > 10 µM | > 10 µM | 6 µM | 0.044 |  |  |  |  |  | > 10 µM |  |  |  |
| O=C1O[C@]2(CC[C@H](CNc3ccc(-c4nccs4)cn3)CC2)CN1c1ccccn1 | 0.126 nM | > 10 µM | 0.3 µM | 1 µM | 7 µM |  |  |  |  |  |  | 3 µM |  |  |  |
| O=C1O[C@]2(CC[C@H](CNc3cnn(-c4ccccc4F)c3)CC2)CN1c1cncnc1 | 0.0398 nM | > 10 µM | > 10 µM | > 10 µM | 2 µM | 0.044 |  |  |  |  |  | 6 µM |  |  |  |
| O=C1O[C@]2(CC[C@H](CNc3ccc(C(F)(F)F)cn3)CC2)CN1c1ccccn1 | 1 nM | > 10 µM | 2 µM | > 10 µM | > 10 µM | 0.005 |  |  |  |  |  | 5 µM |  |  |  |
| O=C1O[C@]2(CC[C@H](CNc3ccc(-c4ncccn4)cn3)CC2)CN1c1ccccn1 | 0.158 nM | > 10 µM | 5 µM | > 10 µM | > 10 µM | 0.035 |  |  |  |  |  | 10 µM |  |  |  |

Reference: ChEMBL document CHEMBL1255172, “Discovery and structure-activity relationship of a novel spirocarbamate series of NPY Y5 antagonists” (Bioorg Med Chem Lett, 2010)
